Data taken from EP4810052A2, “HCRHR2 SELECTIVE POLYPEPTIDES” (Gubra A/S, priority 2023, dated 2026).
Like-named read-outs stand apart in the source and are kept apart here. One block for each compound: values may come before it. Starred links: 1 amine or outer side, 2 acyl side, 3 side chain; linkers in the order of their positions; H or OH if unused. Non-standard residues stand in square brackets, D forms with d. Residues, ends and D or L forms follow the SMILES beside them. Groups on a side chain read outwards from the residue. *: point of attachment. C20 diacid = O=C(O)CCCCCCCCCCCCCCCCCCC(=O)*; γGlu = O=C(O)[C@H](CCC(=O)[*:2])N[*:1]; NMeI = CC[C@H](C)[C@H](NC)C(=O)O; Nle = CCCC[C@H](N)C(=O)O; AEEA = NCCOCCOCC(=O)O; Aib = CC(C)(N)C(=O)O

Legend:
hCRHR2 = molecular target: T1, hCRHR2 (Homo sapiens, UniProt Q13324); assay: HTRF cAMP assay, determination of hCRHR2 potency (peptide libraries 5 conc., purified peptides 11 conc.); assay type: cell-based
T1 sequence (Q13324 1-411): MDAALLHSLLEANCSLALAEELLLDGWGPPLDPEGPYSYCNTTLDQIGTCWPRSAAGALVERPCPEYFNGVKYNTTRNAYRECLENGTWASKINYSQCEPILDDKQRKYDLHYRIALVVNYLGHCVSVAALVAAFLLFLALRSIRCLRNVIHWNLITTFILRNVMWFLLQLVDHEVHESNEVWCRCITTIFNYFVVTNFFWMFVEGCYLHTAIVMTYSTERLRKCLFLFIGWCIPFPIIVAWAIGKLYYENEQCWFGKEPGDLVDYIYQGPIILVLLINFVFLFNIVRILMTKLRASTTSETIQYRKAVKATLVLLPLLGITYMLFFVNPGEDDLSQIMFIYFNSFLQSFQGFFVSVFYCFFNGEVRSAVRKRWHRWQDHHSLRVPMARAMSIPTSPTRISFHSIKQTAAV
Summary of the method: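 CHO-K1 cells stably expressing human CRHR2, thawed from frozen stocks just before use and run in suspension; cAMP measured by competitive HTRF immunoassay (cryptate anti-cAMP, d2-cAMP). Agonist peptides tested at 5 (libraries) or 11 (purified) concentrations; EC50 from sigmoid variable-slope nonlinear regression.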

hCRHR1 = molecular target: T2, hCRHR1 (Homo sapiens, UniProt P34998); assay: HTRF cAMP assay, determination of hCRHR1 potency (peptide libraries 5 conc., purified peptides 11 conc.); assay type: cell-based
T2 sequence (P34998 24-415): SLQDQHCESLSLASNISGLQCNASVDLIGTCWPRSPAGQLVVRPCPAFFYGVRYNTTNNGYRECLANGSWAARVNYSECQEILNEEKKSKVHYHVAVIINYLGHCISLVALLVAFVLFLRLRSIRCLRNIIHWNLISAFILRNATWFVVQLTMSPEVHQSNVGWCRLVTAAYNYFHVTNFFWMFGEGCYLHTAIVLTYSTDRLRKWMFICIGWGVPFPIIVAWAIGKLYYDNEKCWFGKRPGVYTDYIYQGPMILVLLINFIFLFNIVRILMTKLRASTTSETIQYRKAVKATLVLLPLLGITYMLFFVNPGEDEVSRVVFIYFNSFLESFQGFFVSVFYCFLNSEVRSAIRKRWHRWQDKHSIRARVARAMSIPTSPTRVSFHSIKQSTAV
Summary of the method: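 CHO-K1 cells stably expressing human CRHR1, thawed from frozen stocks just before use, were stimulated in suspension with agonist peptides. cAMP was measured by HTRF competitive immunoassay (cryptate anti-cAMP antibody vs d2-cAMP).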

[1] = Table 4, library peptides having X^38 = Nle, read-out: hCRHR2 pEC50 (converted)
[2] = Table 4, library peptides having X^38 = Nle, read-out: hCRHR1 pEC50 (converted)

- EC50 (hCRHR2; Table 3, matched molecular pairs X^38 L vs Nle, peptide library of Example 4, read-out: hCRHR2 pEC50 (converted)): 0.398 nM
- EC50 (hCRHR1; Table 3, matched molecular pairs X^38 L vs Nle, peptide library of Example 4, read-out: hCRHR1 pEC50 (converted)): 1000 nM
SMILES: CCCC[C@H](NC(=O)[C@@H](NC(=O)[C@H](CCC(=O)O)NC(=O)[C@H](C)NC(=O)[C@H](CC(N)=O)NC(=O)[C@@H](NC(=O)[C@H](CCCCNC(=O)COCCOCCNC(=O)COCCOCCNC(=O)CC[C@H](NC(=O)CC[C@H](NC(=O)CCCCCCCCCCCCCCCCCCC(=O)O)C(=O)O)C(=O)O)NC(=O)[C@H](C)NC(=O)[C@H](CCC(N)=O)NC(=O)[C@H](CCC(=O)O)NC(=O)[C@H](CCCNC(=N)N)NC(=O)[C@H](C)NC(=O)[C@H](C)NC(=O)[C@H](CCC(=O)O)NC(=O)[C@H](C)NC(=O)[C@H](CCCNC(=N)N)NC(=O)[C@H](C)NC(=O)[C@H](CCC(N)=O)NC(=O)[C@H](CCC(=O)O)NC(=O)[C@H](CC(C)C)NC(=O)[C@H](CC(C)C)NC(=O)[C@@H](NC(=O)[C@H](CCC(N)=O)NC(=O)[C@H](CC(C)C)NC(=O)[C@H](CC(C)C)NC(=O)CNC(=O)[C@@H](NC(=O)[C@@H]1CCCN1C(=O)[C@@H](NC(=O)[C@H](CC(=O)O)NC(=O)[C@H](CC(C)C)NC(=O)[C@H](CO)NC(=O)[C@H](CC(C)C)NC(=O)[C@@H](NC(=O)[C@@H](N)[C@@H](C)CC)C(C)C)C(C)C)[C@@H](C)CC)[C@@H](C)CC)[C@@H](C)O)[C@@H](C)CC)C(=O)N[C@@H](C)C(=O)N[C@@H](CCC(=O)O)C(=O)N[C@H](C(N)=O)[C@@H](C)CC [SEQ ID NO: 24] (H-IVLSLDVPIGLLQILLEQARAEAAREQAK([AEEA-AEEA-γGlu-γGlu-C20 diacid])TNAEI[Nle]AEI-NH2)

- EC50 (hCRHR2; [1]): 0.0501 nM
- EC50 (hCRHR1; [2]): 31600 nM
SMILES: CCCC[C@H](NC(=O)[C@@H](NC(=O)[C@H](CCC(=O)O)NC(=O)C(C)(C)NC(=O)[C@H](CC(N)=O)NC(=O)[C@@H](NC(=O)[C@H](CCCCNC(=O)COCCOCCNC(=O)COCCOCCNC(=O)CC[C@H](NC(=O)CC[C@H](NC(=O)CCCCCCCCCCCCCCCCCCC(=O)O)C(=O)O)C(=O)O)NC(=O)[C@H](C)NC(=O)[C@H](CCC(N)=O)NC(=O)[C@H](CCC(=O)O)NC(=O)[C@H](CCCNC(=N)N)NC(=O)[C@H](C)NC(=O)[C@H](C)NC(=O)[C@H](CCCNC(=N)N)NC(=O)[C@H](C)NC(=O)[C@H](CCCNC(=N)N)NC(=O)[C@H](C)NC(=O)[C@H](CCC(N)=O)NC(=O)[C@H](CCCCN)NC(=O)[C@H](CC(C)C)NC(=O)[C@H](CC(C)C)NC(=O)[C@@H](NC(=O)[C@H](CCC(N)=O)NC(=O)[C@H](CC(C)C)NC(=O)[C@H](CC(C)C)NC(=O)CNC(=O)[C@@H](NC(=O)[C@@H]1CCCN1C(=O)[C@@H](NC(=O)[C@H](CC(=O)O)NC(=O)[C@H](CC(C)C)NC(=O)[C@H](CO)NC(=O)[C@H](CC(C)C)NC(=O)[C@@H](NC(=O)[C@@H](NC)[C@@H](C)CC)C(C)C)C(C)C)[C@@H](C)CC)[C@@H](C)CC)[C@@H](C)O)[C@@H](C)CC)C(=O)N[C@@H](C)C(=O)N[C@@H](CCC(=O)O)C(=O)N[C@H](C(N)=O)C(C)C [compound 230] (H-[NMeI]VLSLDVPIGLLQILLKQARARAAREQAK([AEEA-AEEA-γGlu-γGlu-C20 diacid])TN[Aib]EI[Nle]AEV-NH2)

- EC50 (hCRHR2; library peptides, matched molecular pairs L vs Nle in position X^38, read-out: Potency hCRHR2 pEC50 (converted)): 0.398 nM
- EC50 (hCRHR1; library peptides, matched molecular pairs L vs Nle in position X^38, read-out: Potency hCRHR1 pEC50 (converted)): 20000 nM
SMILES: CC[C@H](C)[C@H](N)C(=O)N[C@H](C(=O)N[C@@H](CC(C)C)C(=O)N[C@@H](CO)C(=O)N[C@@H](CC(C)C)C(=O)N[C@@H](CC(=O)O)C(=O)N[C@H](C(=O)N1CCC[C@H]1C(=O)N[C@H](C(=O)NCC(=O)N[C@@H](CC(C)C)C(=O)N[C@@H](CC(C)C)C(=O)N[C@@H](CCC(N)=O)C(=O)N[C@H](C(=O)N[C@@H](CC(C)C)C(=O)N[C@@H](CC(C)C)C(=O)N[C@@H](CCC(=O)O)C(=O)N[C@@H](CCC(N)=O)C(=O)N[C@@H](C)C(=O)N[C@@H](CCCNC(=N)N)C(=O)N[C@@H](C)C(=O)N[C@@H](CCC(N)=O)C(=O)N[C@@H](C)C(=O)N[C@@H](C)C(=O)N[C@@H](CCCNC(=N)N)C(=O)N[C@@H](CCC(=O)O)C(=O)N[C@@H](CCCNC(=N)N)C(=O)N[C@@H](C)C(=O)N[C@@H](CCCCNC(=O)COCCOCCNC(=O)COCCOCCNC(=O)CC[C@H](NC(=O)CC[C@H](NC(=O)CCCCCCCCCCCCCCCCCCC(=O)O)C(=O)O)C(=O)O)C(=O)N[C@H](C(=O)N[C@@H](CC(N)=O)C(=O)N[C@@H](C)C(=O)N[C@@H](CCC(=O)O)C(=O)N[C@H](C(=O)N[C@@H](CC(C)C)C(=O)N[C@@H](C)C(=O)N[C@@H](CCC(=O)O)C(=O)N[C@H](C(N)=O)C(C)C)[C@@H](C)CC)[C@@H](C)O)[C@@H](C)CC)[C@@H](C)CC)C(C)C)C(C)C [compound 48] (H-IVLSLDVPIGLLQILLEQARAQAARERAK([AEEA-AEEA-γGlu-γGlu-C20 diacid])TNAEILAEV-NH2)

More lines, now with the values behind:

SMILES: CCCC[C@H](NC(=O)[C@@H](NC(=O)[C@H](CCC(=O)O)NC(=O)[C@H](C)NC(=O)[C@H](CC(N)=O)NC(=O)C(C)(C)NC(=O)[C@H](CCCCNC(=O)COCCOCCNC(=O)COCCOCCNC(=O)CC[C@H](NC(=O)CC[C@H](NC(=O)CCCCCCCCCCCCCCCCCCC(=O)O)C(=O)O)C(=O)O)NC(=O)[C@H](C)NC(=O)[C@H](CCC(N)=O)NC(=O)[C@H](CCC(=O)O)NC(=O)[C@H](CCCNC(=N)N)NC(=O)[C@H](C)NC(=O)[C@H](C)NC(=O)[C@H](CCCNC(=N)N)NC(=O)[C@H](C)NC(=O)[C@H](CCCNC(=N)N)NC(=O)[C@H](C)NC(=O)[C@H](CCC(N)=O)NC(=O)[C@H](CCCNC(=N)N)NC(=O)[C@H](CC(C)C)NC(=O)[C@H](CC(C)C)NC(=O)[C@@H](NC(=O)[C@H](CCC(N)=O)NC(=O)[C@H](CC(C)C)NC(=O)[C@H](CC(C)C)NC(=O)CNC(=O)[C@@H](NC(=O)[C@@H]1CCCN1C(=O)[C@@H](NC(=O)[C@H](CC(=O)O)NC(=O)[C@H](CC(C)C)NC(=O)[C@H](CO)NC(=O)[C@H](CC(C)C)NC(=O)[C@@H](NC(=O)[C@@H](NC)[C@@H](C)CC)C(C)C)C(C)C)[C@@H](C)CC)[C@@H](C)CC)[C@@H](C)CC)C(=O)N[C@@H](C)C(=O)N[C@@H](CCC(=O)O)C(=O)N[C@H](C(N)=O)C(C)C [compound 232] (H-[NMeI]VLSLDVPIGLLQILLRQARARAAREQAK([AEEA-AEEA-γGlu-γGlu-C20 diacid])[Aib]NAEI[Nle]AEV-NH2)
- EC50 (hCRHR2; [1]): 0.158 nM
- EC50 (hCRHR1; [2]): 50100 nM

SMILES: CC[C@H](C)[C@H](N)C(=O)N[C@H](C(=O)N[C@@H](CC(C)C)C(=O)N[C@@H](CO)C(=O)N[C@@H](CC(C)C)C(=O)N[C@@H](CC(=O)O)C(=O)N[C@H](C(=O)N1CCC[C@H]1C(=O)N[C@H](C(=O)NCC(=O)N[C@@H](CC(C)C)C(=O)N[C@@H](CC(C)C)C(=O)N[C@@H](CCC(N)=O)C(=O)N[C@H](C(=O)N[C@@H](CC(C)C)C(=O)N[C@@H](CC(C)C)C(=O)N[C@@H](CCC(=O)O)C(=O)N[C@@H](CCC(N)=O)C(=O)N[C@@H](C)C(=O)N[C@@H](CCCNC(=N)N)C(=O)N[C@@H](C)C(=O)N[C@@H](CCCNC(=N)N)C(=O)N[C@@H](C)C(=O)N[C@@H](C)C(=O)N[C@@H](CCCNC(=N)N)C(=O)N[C@@H](CCC(=O)O)C(=O)N[C@@H](CCCNC(=N)N)C(=O)N[C@@H](C)C(=O)N[C@@H](CCCCNC(=O)COCCOCCNC(=O)COCCOCCNC(=O)CC[C@H](NC(=O)CC[C@H](NC(=O)CCCCCCCCCCCCCCCCCCC(=O)O)C(=O)O)C(=O)O)C(=O)N[C@H](C(=O)N[C@@H](CC(N)=O)C(=O)N[C@@H](C)C(=O)N[C@@H](CCC(=O)O)C(=O)N[C@H](C(=O)N[C@@H](CC(C)C)C(=O)N[C@@H](C)C(=O)N[C@@H](CCC(=O)O)C(=O)N[C@H](C(N)=O)C(C)C)[C@@H](C)CC)[C@@H](C)O)[C@@H](C)CC)[C@@H](C)CC)C(C)C)C(C)C [compound 66] (H-IVLSLDVPIGLLQILLEQARARAARERAK([AEEA-AEEA-γGlu-γGlu-C20 diacid])TNAEILAEV-NH2)
- EC50 (hCRHR2): 0.316 nM
- EC50 (hCRHR1): 50100 nM
